In patent publication US12655116B2, “Substituted isophthalic acid diamides” (Bayer Aktiengesellschaft, priority 2020, dated 2026):

Experiments:
ECHCG [1] = test: Pre-emergence herbicidal action against ECHCG; format: in vivo, Echinochloa crus-galli; settings: 80 g/ha
Summary of the method: (§1)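 Herbicidal effect was assessed 3 weeks after treatment by visual comparison with untreated controls, 100% denoting dead plants. Aqueous WP or EC preparations had been applied at 600 to 800 l/ha with 0.2% wetting agent to the soil covering freshly sown seeds.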

POLCO = test: Pre-emergence herbicidal action against POLCO; format: in vivo, Polygonum convolvulus
Summary of the method: as §1

MATIN [2] = test: Pre-emergence herbicidal action against MATIN; format: in vivo, Matricaria inodora
Summary of the method: as §1

ABUTH [3] = test: Pre-emergence herbicidal action against ABUTH; format: in vivo, Abutilon theophrasti; settings: for Pre-emergence action against ABUTH (herbicidal activity): 80 g/ha, scored visually after 3 weeks vs untreated controls (100% = plants have died, 0% = like control plants); for Pre-emergence action against ABUTH (herbicidal activity in percent): dosage 20 g/ha, scored visually after 3 weeks vs untreated controls, 100% = plants have died, 0% = like control plants
Summary of the method: as §1

DIGSA [4] = test: Post-emergence herbicidal action against DIGSA; format: in vivo, Digitaria sanguinalis; settings: 20 g/ha
Summary of the method: (§2)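 Post-emergence greenhouse test; one-leaf stage, 2–3 wk post-sowing, sandy loam. Foliar spray of WP/EC in water, 600–800 l/ha, +0.2% wetting agent. Visual % action at ~3 wk vs untreated (100% = plants dead).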

ALOMY [5] = test: Pre-emergence herbicidal action against ALOMY; format: in vivo, Alopecurus myosuroides; settings: for Pre-emergence action against ALOMY (herbicidal activity): 80 g/ha, scored visually after 3 weeks vs untreated controls (100% = plants have died, 0% = like control plants)
Summary of the method: as §1

AMARE [6] = test: Pre-emergence herbicidal action against AMARE; format: in vivo, Amaranthus retroflexus
Summary of the method: as §1

ECHCG [7] = test: Post-emergence herbicidal action against ECHCG; format: in vivo, Echinochloa crus-galli
Summary of the method: as §2

VERPE [8] = test: Post-emergence herbicidal action against VERPE; format: in vivo, Veronica persica; settings: 20 g/ha
Summary of the method: as §2

ALOMY [9] = test: Post-emergence herbicidal action against ALOMY; format: in vivo, Alopecurus myosuroides; settings: dosage 20 g/ha, visual assessment about 3 weeks after treatment vs untreated controls
Summary of the method: as §2

VIOTR [10] = test: Pre-emergence herbicidal action against VIOTR; format: in vivo, Viola tricolor
Summary of the method: as §1

AMARE [11] = test: Post-emergence herbicidal action against AMARE; format: in vivo, Amaranthus retroflexus; settings: 20 g/ha, visual assessment about 3 weeks after treatment, 100% = plants have died, 0% = like control plants
Summary of the method: as §2

PHBPU [12] = test: Pre-emergence herbicidal action against PHBPU; format: in vivo, Pharbitis purpurea; settings: dosage 80 g/ha
Summary of the method: as §1

ABUTH [13] = test: Post-emergence herbicidal action against ABUTH; format: in vivo, Abutilon theophrasti; settings: visual assessment about 3 weeks after treatment vs untreated controls
Summary of the method: as §2

SETVI [14] = test: Pre-emergence herbicidal action against SETVI; format: in vivo, Setaria viridis; settings: dosage 80 g/ha
Summary of the method: as §1

DIGSA [15] = test: Pre-emergence herbicidal action against DIGSA; format: in vivo, Digitaria sanguinalis
Summary of the method: as §1

VERPE [16] = test: Pre-emergence herbicidal action against VERPE; format: in vivo, Veronica persica
Summary of the method: as §1

AVEFA = test: Pre-emergence herbicidal action against AVEFA; format: in vivo, Avena fatua; settings: 80 g/ha, pre-emergence
Summary of the method: as §1

PHBPU [17] = test: Post-emergence herbicidal action against PHBPU; format: in vivo, Pharbitis purpurea; settings: dosage 20 g/ha
Summary of the method: as §2

MATIN [18] = test: Post-emergence herbicidal action against MATIN; format: in vivo, Matricaria inodora; settings: dosage 20 g/ha
Summary of the method: as §2

SETVI [19] = test: Post-emergence herbicidal action against SETVI; format: in vivo, Setaria viridis
Summary of the method: as §2

VIOTR [20] = test: Post-emergence herbicidal action against VIOTR; format: in vivo, Viola tricolor; settings: 20 g/ha
Summary of the method: as §2

[21] = 20 g/ha, scored visually after 3 weeks vs untreated controls, 100% = plants have died, 0% = like control plants
[22] = 80 g/ha, scored visually after 3 weeks vs untreated controls (100% = plants have died, 0% = like control plants)

SMILES | Pre-emergence action against ECHCG in % (ECHCG [1]) | Pre-emergence action against POLCO in % (POLCO; dosage 80 g/ha) | Pre-emergence action against MATIN in % (MATIN [2]; dosage 80 g/ha) | Pre-emergence action against ABUTH (herbicidal activity) (ABUTH [3]) | Pre-emergence action against ABUTH (herbicidal activity in percent) (ABUTH [3]) | Pre-emergence action against ALOMY (herbicidal activity) (ALOMY [5]) | Pre-emergence action against AMARE in % (AMARE [6]; [21]) | Pre-emergence action against AMARE in % (AMARE [6]; [22]) | Post-emergence action against ECHCG in % (ECHCG [7]; dosage 20 g/ha) | Post-emergence action against VERPE in % (VERPE [8]) | Post-emergence action against ALOMY in % (ALOMY [9]) | Pre-emergence action against VIOTR in % (VIOTR [10]; dosage 80 g/ha) | Post-emergence action at 20 g/ha against AMARE in % (AMARE [11]) | Pre-emergence action against PHBPU in % (PHBPU [12]) | Post-emergence action against ABUTH in % (ABUTH [13]; dosage 5 g/ha) | Post-emergence action against ABUTH in % (ABUTH [13]; dosage 20 g/ha) | Pre-emergence action against SETVI in % (SETVI [14]) | also measured
Cc1nnc(NC(=O)c2ccc(C(F)F)c(C(=O)NC(C)C3CC3)c2C)o1 (centres unmarked) [Example 6-258] | 100% | 80% | 90% | 100% | 100% | 90% | 100% | 100% | 90% | 80% | 80% | 80% | 90% | 90% | 80% | 90% | 80% | Post-emergence action against DIGSA (DIGSA [4]): 90%; Post-emergence action against ECHCG in % (ECHCG [7]; dosage 5 g/ha): 80%; Pre-emergence action against DIGSA in % (DIGSA [15]; dosage 20 g/ha): 100%; Pre-emergence action against DIGSA in % (DIGSA [15]; dosage 80 g/ha): 100%; Pre-emergence action against VERPE in % (VERPE [16]; dosage 20 g/ha): 90%; Pre-emergence action against VERPE in % (VERPE [16]; dosage 80 g/ha): 100%
CCc1c(C(=O)Nc2nnnn2C)ccc(C(F)(F)F)c1C(=O)NCC(F)F [Example 1-276] | 100% | 90% | 100% | 100% | 100% | 100% | 90% | 100% | 80% | 80% | 80% | 100% | 100% | 90% | 80% | 80% | 100% | Pre-emergence action against POLCO in % (POLCO; dosage 20 g/ha): 80%; Pre-emergence action against AVEFA in % (AVEFA): 90%; Pre-emergence action against MATIN in % (MATIN [2]; dosage 20 g/ha): 90%; Post-emergence action against PHBPU in % (PHBPU [17]): 90%; Pre-emergence action against ALOMY (ALOMY [5]; 20 g/ha, scored visually after 3 weeks, 100% = plants have died, 0% = like control plants): 90%; Post-emergence action against MATIN in % (MATIN [18]): 80%; Pre-emergence action against VIOTR in % (VIOTR [10]; dosage 20 g/ha): 80%; Post-emergence action against SETVI in % (SETVI [19]; dosage 5 g/ha): 80%; Post-emergence action against SETVI in % (SETVI [19]; dosage 20 g/ha): 80%; Post-emergence action against VIOTR in % (VIOTR [20]): 80%
